Measured values from article PMC11727334, “A self-immolative Kdn-glycoside substrate enables high-throughput screening for inhibitors of Kdnases” (Glycobiology, 2024).
Like-named read-outs stand apart in the source and are kept apart here.

Legend:
[1] = tested on: A. fumigatus; design: method as in Nesbitt et al. 2018; settings: ref Nesbitt et al. 2018, cited from earlier work
[2] = molecular target: T1, Kdnase produced by A. fumigatus (AfK) (Aspergillus fumigatus, UniProt Q4WQS0); experiment: Inhibition assay of recombinant AfK using 4MU-Kdn as substrate; format: biochemical; settings: Fig. S10; read-out: IC50
T1 construct: AfK was expressed and purified as described by Telford et al; made in house
T1 sequence (Q4WQS0 21-406): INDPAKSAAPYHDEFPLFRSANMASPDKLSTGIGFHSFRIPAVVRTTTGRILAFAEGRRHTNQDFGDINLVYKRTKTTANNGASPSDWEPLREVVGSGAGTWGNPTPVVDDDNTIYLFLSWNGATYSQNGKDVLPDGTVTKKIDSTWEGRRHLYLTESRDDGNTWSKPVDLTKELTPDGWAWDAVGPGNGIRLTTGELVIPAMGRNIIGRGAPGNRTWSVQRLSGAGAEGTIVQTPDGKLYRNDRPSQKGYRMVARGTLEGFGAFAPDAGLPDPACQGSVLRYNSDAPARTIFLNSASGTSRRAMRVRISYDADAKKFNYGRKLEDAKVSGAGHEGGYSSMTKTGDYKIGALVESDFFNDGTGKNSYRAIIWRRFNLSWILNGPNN
From the text: We purchase fresh commercial material for compounds 13 and 14 and performed inhibition assays using recombinant AfK (Methods, Fig. S8, Supporting Information). We determined IC50 values in quadruplicate using 4MU-Kdn as the substrate ([Yeung et al. 2013]). […] We submitted both compounds to a pan-assay interference compounds (PAINS) filter, a compilation of chemical substructures known to show promiscuous biological activities ([Baell and Nissink 2018]). […] We performed standard inhibition assays as described earlier using inhibitor 13 and these recombinant enzymes. […] We also tested inhibitor 13 with the sialidase MvNA, the closest structural homologue to AfK, that is known to cleave a multitude of substrates including Kdn glycosides ([Telford et al. 2011]).
Each 200 μM reaction mixture was incubated at rt for 2 min prior to the addition of purified sialidase. Inhibitor was added to the reaction mixture and allowed to incubate at rt between 0–60 min in 100 mM sodium acetate buffer pH 4.0 and 0.01% BSA prior to the addition of substrate. The kinetic parameters were determined from initial rate measurements using a substrate concentration of Km/4. The progress of the reaction was continuously monitored for 15 min using a fluorescence spectrophotometer (BioTek Neo 2) and excitation and emission wavelengths of 360 and 450 nm, respectively.

[3] = molecular target: T2, AfK (Aspergillus fumigatus, UniProt Q4WQS0); settings: Table S1; ref Telford et al., J Biol Chem, 2011, 10783; cited from earlier work
T2 construct: AfK was expressed and purified as described by Telford et al; made in house
T2 sequence (Q4WQS0 21-406): as above

[4] = molecular target: T1, Kdnase produced by A. fumigatus (AfK); design: method as in Telford et al. (3); settings: Table S2; ref Telford et al. (3); cited from earlier work
[5] = tested on: TrK; experiment: Differential scanning fluorimetry (DSF) thermal shift assay, TrK; format: binding, Trichophyton rubrum; settings: inhibitor 500 µM
From the text: (§1) We next used a separate biophysical technique, differential scanning fluorimetry (DSF), to confirm that these compound bind to the various Kdnases. Specifically, we measured protein melting temperatures in the presence of Kdn2en (2) and candidate ligands 13 and 17 (Fig. 3D). […] We repeated this DSF assay on AtK and TrK and we observed similar trends in thermal shifts (Fig. S14 and Tables S2,S3 and S4, Supporting Information). […] Accordingly, further follow up on this compound would need to be pursued with an awareness of this possibility.
(§2) Table S3. Differential scanning fluorometry-based (DSF) assay for inhibitors 2, 13, and 17 binding to Af, At, Tr and MvNA. Protein thermal shifts(ΔTm) using DMSO (2.5%), and inhibitors 2, 13, and 17 at 500 µM against the Kdnase of Af, At, Tr and MvNA. Assay done using 5–10 µM enzyme and 100 mM pH 4.0 NaOAc (pH 5.5 MvNA). A temperature range of 25°C to 95°C was used with a gradient of 0.05°C/sec. […]
(§3) Table S4. Thermal shifts (ΔTm) for stabilization of AfK, AtK, TrK and MvNA on inhibitor binding relative to the DMSO (2.5%) control. […]

[6] = molecular target: MvNA (Micromonospora viridifaciens, UniProt Q02834); experiment: Differential scanning fluorimetry (DSF) thermal shift assay, MvNA; format: binding; settings: inhibitor 500 µM
MvNA, sequence (Q02834 38-647): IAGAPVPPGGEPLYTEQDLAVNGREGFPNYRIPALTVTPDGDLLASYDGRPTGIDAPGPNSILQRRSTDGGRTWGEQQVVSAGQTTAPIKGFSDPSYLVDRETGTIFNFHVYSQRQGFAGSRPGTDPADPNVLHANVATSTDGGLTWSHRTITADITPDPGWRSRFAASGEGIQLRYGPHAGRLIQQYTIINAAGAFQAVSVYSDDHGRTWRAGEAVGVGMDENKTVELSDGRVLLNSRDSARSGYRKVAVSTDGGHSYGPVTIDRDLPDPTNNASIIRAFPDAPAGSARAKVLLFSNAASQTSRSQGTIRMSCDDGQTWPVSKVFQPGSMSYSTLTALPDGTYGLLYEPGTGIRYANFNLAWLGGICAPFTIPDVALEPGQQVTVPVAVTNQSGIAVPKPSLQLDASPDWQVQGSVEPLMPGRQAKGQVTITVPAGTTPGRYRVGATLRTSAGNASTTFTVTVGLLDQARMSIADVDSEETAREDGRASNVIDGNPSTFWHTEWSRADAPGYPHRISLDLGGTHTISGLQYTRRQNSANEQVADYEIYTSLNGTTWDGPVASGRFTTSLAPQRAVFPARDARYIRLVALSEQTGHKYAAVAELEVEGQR
Protocol: as §2, §3

[7] = molecular target: T2, AfK; experiment: Differential scanning fluorimetry (DSF) thermal shift assay, AfK; format: binding
From the text: as §1, §2, §3

[8] = tested on: AtK; experiment: Differential scanning fluorimetry (DSF) thermal shift assay, AtK; format: binding, Aspergillus terreus; settings: inhibitor 500 µM
From the text: as §1, §2, §3

[9] = 100 mM pH 4.0 NaOAc, 5–10 µM enzyme

For `C[C@@H]1[C@H](O)[C@@H](C)/C=C/C=C/C=C/C=C/C=C/C=C/C=C/[C@H](O[C@@H]2O[C@H](C)[C@@H](O)[C@H](N)[C@@H]2O)C[C@@H]2O[C@](O)(C[C@@H](O)C[C@@H](O)[C@H](O)CC[C@@H](O)C[C@@H](O)CC(=O)O[C@H]1C)C[C@H](O)[C@H]2C(=O)O` [Amphotericin B], the survival outcome ([1]; immunocompromised mice infected with AfK KO spores) is listed as “improved survival rate” and the survival outcome ([1]; immunocompromised mice infected with wild-type (WT) A. fumigatus spores) is listed as “complete mortality”.

With `O=C(O)/C=C/c1ccc(O)c(O)c1` [caffeic acid, reference compound] the IC50 [2] was roughly 500 µM.

For `Cc1cc(=O)oc2cc(O[C@]3(C(=O)O)C[C@H](O)[C@@H](O)[C@H]([C@H](O)[C@H](O)CO)O3)ccc12` [compound 1, 4-methylumbelliferyl 3-deoxy-D-glycero-D-galacto-non-2-ulopyranosidonic acid], the Km [3] is listed as 230 ± 20 µM and the kcat [3] is listed as 41 ± 4 s–1.

In the case of `O=C(O)C1=C[C@H](O)[C@@H](O)[C@H]([C@H](O)[C@H](O)CO)O1` [compound 2, Kdn2en, reference compound], the IC50 [4] is listed as 556 µM, the Ki [4] is listed as 102 µM and the “Thermal shift (ΔTm) relative to DMSO (2.5%) control” value ([5]; Table S4) is listed as “+15.0 ± 0.2 °C”. The “protein melting temperature (DSF, Table S3)” value (from here on “protein melting temperature”) [5, 9] was 49.7 ± 0.2 °C, the ΔTm at 500 µM ([6]; Table S4, read-out: Thermal shift (ΔTm) relative to DMSO (2.5%) control) was 0.5 °C and the “protein melting temperature” value ([6]; pH 5.5, 5–10 µM enzyme) was 54.4 ± 0.1 °C. The “effect on thermal stability of the folded enzyme (DSF, in words)” value ([7]; AfK) was “positive unfolding temperature shifts”, the “protein melting temperature” value ([7]; inhibitor 500 µM, 100 mM pH 4.0 NaOAc, 5–10 µM enzyme) was 53.2 ± 0.1 °C and the ΔTm at 500 µM ([7]; read-out: Thermal shift (ΔTm) relative to DMSO (2.5%) control) was 1.7 °C. The “Thermal shift (ΔTm) relative to DMSO (2.5%) control” value ([8]; Table S4) was “+3.4 ± 0.1 °C” and the “protein melting temperature” value [8, 9] was 55.3 ± 0.1 °C.
